Test results as given in US8580829B2 (Boehringer Ingelheim International GmbH, priority 2010, dated 2013).

What was measured:
[1] = target: T1, recombinant human FLAP protein (Homo sapiens, UniProt P20292); assay: FLAP binding assay (Scintillation Proximity Assay, displacement of [125I]L-691,831); details: recombinant human FLAP membranes, [125I]L-691,831 probe; read-out: FLAP SPA IC50
T1 construct: made in house; host or cells: Sf9 insect cells (100,000 x g membrane fraction)
T1 sequence (P20292 1-161): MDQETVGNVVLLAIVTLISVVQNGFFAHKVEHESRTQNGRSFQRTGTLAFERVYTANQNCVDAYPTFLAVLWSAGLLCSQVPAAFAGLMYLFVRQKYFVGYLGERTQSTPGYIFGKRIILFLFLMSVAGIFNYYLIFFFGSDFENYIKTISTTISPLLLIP
In short: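 WGA scintillation proximity beads were stirred 1 h with 5 μg of FLAP-containing membrane protein. The membranes came from baculovirus Sf9 cells, Dounce-lysed and spun to a 100,000×g pellet in buffer at pH 7.5.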

[2] = tested on: synthesis of LTB4 in human whole blood; assay: human whole blood LTB4 production inhibition assay; format: cell-based; details: Homo sapiens, heparinized human whole blood, calcimycin 20 μM; read-out: hWB LTB4 IC50
In short: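 Heparinized human whole blood was preincubated with compound for 15 min at 37° C, then stimulated with calcimycin (20 μM final, in PBS pH 7.4) for a further 30 min at 37° C. Plasma LTB4 was quantified by antibody-based homogeneous time-resolved fluorescence.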

Structure (SMILES) | IC50 [1] | IC50 [2]
Cc1cc(-c2nc(C3(c4ccc(-c5cnc(N)nc5)cc4)CCC3)no2)on1 [Example 157] | 4.1 nM | 690 nM
Nc1ncc(-c2ccc(C3(c4noc(-c5cnccn5)n4)CCC3)cc2)cn1 [Example 158, 5-{4-[1-(5-Pyrazin-2-yl-1,2,4-oxadiazol-3-yl)-cyclobutyl]-phenyl}-pyrimidin-2-ylamine] | 5.7 nM | 360 nM
Nc1ncc(-c2ccc(C3(c4noc(-c5cncnc5)n4)CCC3)cc2)cn1 [Example 159, 5-{4-[1-(5-Pyrimidin-5-yl-1,2,4-oxadiazol-3-yl)-cyclobutyl]-phenyl}-pyrimidin-2-ylamine] | 6 nM | 340 nM
Nc1ncc(-c2ccc(C3(c4noc(-c5ccnnc5)n4)CCC3)cc2)cn1 [Example 160, 5-{4-[1-(5-Pyridazin-4-yl-1,2,4-oxadiazol-3-yl)-cyclobutyl]-phenyl}-pyrimidin-2-ylamine] | 6.2 nM | 240 nM
Cc1cc(-c2nc(C3(c4ccc(-c5cnc(N)nc5)cc4)CCC3)no2)n(C)n1 [Example 161, 5-(4-{1-[5-(2,5-Dimethyl-2H-pyrazol-3-yl)-1,2,4-oxadiazol-3-yl]-cyclobutyl}-phenyl)-pyrimidin-2-ylamine] | 6.6 nM | 860 nM
CCn1nc(C)cc1-c1nc(C2(c3ccc(-c4cnc(N)nc4)cc3)CCC2)no1 [Example 162, 5-(4-{1-[5-(2-Ethyl-5-methyl-2H-pyrazol-3-yl)-1,2,4-oxadiazol-3-yl]-cyclobutyl}-phenyl)-pyrimidin-2-ylamine] | 6.4 nM | 1000 nM
Cc1nocc1-c1nc(C2(c3ccc(-c4cnc(N)nc4)cc3)CCC2)no1 [Example 163, 5-(4-{1-[5-(3-Methyl-isoxazol-4-yl)-1,2,4-oxadiazol-3-yl]-cyclobutyl}-phenyl)-pyrimidin-2-ylamine] | 4 nM | 450 nM
Cc1noc(C)c1-c1nc(C2(c3ccc(-c4cnc(N)nc4)cc3)CCC2)no1 [Example 164, 5-(4-{1-[5-(3,5-Dimethyl-isoxazol-4-yl)-1,2,4-oxadiazol-3-yl]-cyclobutyl}-phenyl)-pyrimidin-2-ylamine] | 5.5 nM | 570 nM
Cc1ncc(-c2nc(C3(c4ccc(-c5cnc(N)nc5)cc4)CCC3)no2)cn1 [Example 165, 5-(4-{1-[5-(2-Methyl-pyrimidin-5-yl)-1,2,4-oxadiazol-3-yl]-cyclobutyl}-phenyl)-pyrimidin-2-ylamine] | 6 nM | 450 nM
Cc1ncccc1-c1nc(C2(c3ccc(-c4cnc(N)nc4)cc3)CCC2)no1 [Example 167, 5-(4-{1-[5-(2-Methyl-pyridin-3-yl)-1,2,4-oxadiazol-3-yl]-cyclobutyl}-phenyl)-pyrimidin-2-ylamine] | 5.1 nM | 660 nM
COc1ccncc1-c1nc(C2(c3ccc(-c4cnc(N)nc4)cc3)CCC2)no1 [Example 168, 5-(4-{1-[5-(4-Methoxy-pyridin-3-yl)-1,2,4-oxadiazol-3-yl]-cyclobutyl}-phenyl)-pyrimidin-2-ylamine] | 5.5 nM | 230 nM
Nc1ncc(-c2ccc(C3(c4noc(-c5cccnc5Cl)n4)CCC3)cc2)cn1 [Example 169, 5-(4-{1-[5-(2-Chloro-pyridin-3-yl)-1,2,4-oxadiazol-3-yl]-cyclobutyl}-phenyl)-pyrimidin-2-ylamine] | 2.1 nM | 130 nM
COC(=O)c1ccc(-c2nc(C3(c4ccc(-c5cnc(N)nc5)cc4)CCC3)no2)cn1 [Example 170, 5-(3-{1-[4-(2-Amino-pyrimidin-5-yl)-phenyl]-cyclobutyl}-1,2,4-oxadiazol-5-yl)-pyridine-2-carboxylic acid methyl ester] | 2.9 nM | 390 nM
Nc1ncc(-c2ccc(C3(c4noc(-c5ccncn5)n4)CCC3)cc2)cn1 [Example 171, 5-{4-[1-(5-Pyrimidin-4-yl-1,2,4-oxadiazol-3-yl)-cyclobutyl]-phenyl}-pyrimidin-2-ylamine] | 14 nM | 820 nM
CC(C)(O)c1ccc(-c2nc(C3(c4ccc(-c5cnc(N)nc5)cc4)CCC3)no2)cn1 [Example 172] | 4.3 nM | 260 nM
Nc1ncc(-c2ccc(C3(c4noc(-c5ccc[nH]c5=O)n4)CCC3)cc2)cn1 [Example 173, 3-(3-{1-[4-(2-amino-pyrimidin-5-yl)-phenyl]-cyclobutyl}-1,2,4-oxadiazol-5-yl)-1H-pyridin-2-one] | 2.9 nM | > 5000 nM

Structure (SMILES) | IC50 [1] | IC50 [2]
COc1cc(-c2nc(C3(c4ccc(-c5cnc(N)nc5)cc4)CCC3)no2)ccn1 [Example 174, 5-(4-{1-[5-(2-Methoxy-pyridin-4-yl)-1,2,4-oxadiazol-3-yl]-cyclobutyl}-phenyl)-pyrimidin-2-ylamine] | 5.3 nM | 510 nM
Nc1ncc(-c2ccc(C3(c4noc(-c5cn[nH]c5)n4)CCC3)cc2)cn1 [Example 175, 5-(4-{1-[5-(1H-Pyrazol-4-yl)-1,2,4-oxadiazol-3-yl]-cyclobutyl}-phenyl)-pyrimidin-2-ylamine] | 2.3 nM | 110 nM
Cn1cncc1-c1nc(C2(c3ccc(-c4cnc(N)nc4)cc3)CCC2)no1 [Example 176, 5-(4-{1-[5-(3-Methyl-3H-imidazol-4-yl)-1,2,4-oxadiazol-3-yl]-cyclobutyl}-phenyl)-pyrimidin-2-ylamine] | 5.6 nM | 410 nM
NC(=O)c1nc(C2(c3ccc(-c4cnc(N)nc4)cc3)CCC2)no1 [Example 177, 3-{1-[4-(2-Amino-pyrimidin-5-yl)-phenyl]-cyclobutyl}-1,2,4-oxadiazole-5-carboxylic acid amide] | 98 nM | 1300 nM
Cc1ccc(C(=O)Nc2nc(C3(c4ccc(-c5cnc(N)nc5)cc4)CCC3)no2)cn1 [Example 178, N-(3-{1-[4-(2-Amino-pyrimidin-5-yl)-phenyl]-cyclobutyl}-1,2,4-oxadiazol-5-yl)-6-methyl-nicotinamide] | 61 nM | > 5000 nM
Nc1ncc(-c2ccc(C3(c4noc(-c5cccnc5N5CCOCC5)n4)CCC3)cc2)cn1 [Example 179, 5-(4-{1-[5-(2-Morpholin-4-yl-pyridin-3-yl)-1,2,4-oxadiazol-3-yl]-cyclobutyl}-phenyl)-pyrimidin-2-ylamine] | 12 nM | 1400 nM
Nc1ncc(-c2ccc(C3(c4noc(-c5ccc(NCCO)nc5)n4)CCC3)cc2)cn1 [Example 180, 2-[5-(3-{1-[4-(2-Amino-pyrimidin-5-yl)-phenyl]-cyclobutyl}-1,2,4-oxadiazol-5-yl)-pyridin-2-ylamino]-ethanol] | 0.85 nM | 73 nM
CN(CCO)c1ccc(-c2nc(C3(c4ccc(-c5cnc(N)nc5)cc4)CCC3)no2)cn1 [Example 181, 2-{[5-(3-{1-[4-(2-Amino-pyrimidin-5-yl)-phenyl]-cyclobutyl}-1,2,4-oxadiazol-5-yl)-pyridin-2-yl]-methyl-amino}-ethanol] | 1.2 nM | 62 nM
COCCNc1ccc(-c2nc(C3(c4ccc(-c5cnc(N)nc5)cc4)CCC3)no2)cn1 [Example 182, 5-[4-(1-{5-[6-(2-Methoxy-ethylamino)-pyridin-3-yl]-1,2,4-oxadiazol-3-yl}-cyclobutyl)-phenyl]-pyrimidin-2-ylamine] | 1.1 nM | 40 nM
CCNc1ccc(-c2nc(C3(c4ccc(-c5cnc(N)nc5)cc4)CCC3)no2)cn1 [Example 183, 5-(4-{1-[5-(6-Ethylamino-pyridin-3-yl)-1,2,4-oxadiazol-3-yl]-cyclobutyl}-phenyl)-pyrimidin-2-ylamine] | 0.88 nM | 53 nM
Nc1ncc(-c2ccc(C3(c4noc(-c5cc[nH]c(=O)c5)n4)CCC3)cc2)cn1 [Example 184, 4-(3-{1-[4-(2-Amino-pyrimidin-5-yl)-phenyl]-cyclobutyl}-1,2,4-oxadiazol-5-yl)-1H-pyridin-2-one] | 2.6 nM | 140 nM
Cn1cc(-c2nc(C3(c4ccc(-c5cnc(N)nc5)cc4)CCC3)no2)cnc1=O [Example 185, 5-(3-{1-[4-(2-Amino-pyrimidin-5-yl)-phenyl]-cyclobutyl}-1,2,4-oxadiazol-5-yl)-1-methyl-1H-pyrimidin-2-one] | 7.3 nM | 230 nM
N#Cc1ccc(-c2nc(C3(c4ccc(-c5cnc(N)nc5)cc4)CCC3)no2)nc1 [Example 186, 6-(3-{1-[4-(2-Amino-pyrimidin-5-yl)-phenyl]-cyclobutyl}-1,2,4-oxadiazol-5-yl)-nicotinonitrile] | 12 nM | 710 nM
Nc1ncc(-c2ccc(C3(c4noc(-c5cnc(Cl)cn5)n4)CCC3)cc2)cn1 [Example 187, 5-(4-{1-[5-(5-chloro-pyrazin-2-yl)-1,2,4-oxadiazol-3-yl]-cyclobutyl}-phenyl)-pyrimidin-2-ylamine] | 8.4 nM | 3400 nM
CN(C)C(=O)Cn1cc(-c2nc(C3(c4ccc(-c5cnc(N)nc5)cc4)CCC3)no2)cn1 [Example 188, 2-[4-(3-{1-[4-(2-amino-pyrimidin-5-yl)-phenyl]-cyclobutyl}-1,2,4-oxadiazol-5-yl)-pyrazol-1-yl]-N,N-dimethyl-acetamide] | 6.2 nM | 81 nM
Nc1ncc(-c2ccc(C3(c4noc(-c5cocn5)n4)CCC3)cc2)cn1 [Example 189, 5-{4-[1-(5-Oxazol-4-yl-1,2,4-oxadiazol-3-yl)-cyclobutyl]-phenyl}-pyrimidin-2-ylamine] | 8.1 nM | 310 nM
